Source: US20100222421A1, “Usage of Baicalein in the Preparation of a Pharmaceutical Composition for the Treatment of Traumatic Brain Injury” (National Defense Medical Center, priority 2009, published 2010)

Tested on: IL-6 mRNA
Experiment: Real-time quantitative RT-PCR, IL-6 mRNA after CCI injury
Assay type: in vivo, rat
Conditions: single-dose 30 mg kg^-1 i.p.; ipsilateral cortex, 6 h after injury; P<0.05
Experimental: A previously described CCI injury procedure was utilized (Chen et al., 2003). Male Sprague-Dawley rats, which have body weight of 250-300 g, were anaesthetized with sodium pentobarbital (i.p.; 50 mgkg^−1; Rhone Merieux, Harlow, UK) and placed in a stereotaxic frame. A 5-mm craniotomy was performed over the left parietal cortex, centered on the coronal suture and 3 mm lateral to the sagittal suture. Considerable care was taken to avoid injury to the underlying dura. Injury was made using a pneumatic piston with a rounded metal tip (2.5 mm diameter) that was angled 22.5° C. to the vertical so that the tip was perpendicular with the brain surface at the centre of the craniotomy. A velocity of 4 ms^−1 and a deformation depth 2 mm below the dura were used. […] Body temperature was monitored throughout the surgery by a rectal probe; temperature was maintained at 37.0±0.5° C. using a heated pad. […] Testing after injury was as follows: (1) real-time quantitative RT-PCR analysis for TNF-α, IL-1β and IL-6 mRNA expression at 6 h post-injury (n=7 for each group); (2) FluoroJade B (FJB) staining, TNF-α, IL-1β and IL-6 immunohistochemistry, as well as ELISA at 24 h post-injury to assess degenerative neurons and to determine cytokine expression (n=7 for each group). […] Approximately 50 mg tissue was collected from the ipsilateral (injured) hemisphere and processed for real-time quantitative RT-PCR. […]

Compound: O=c1cc(-c2ccccc2)oc2cc(O)c(O)c(O)c12 [baicalein]
- IL-6 mRNA level, % of level in vehicle-treated injured rats: 43.6%
